According to publication PMC6987146, “Potent inhibition of HIV replication in primary human cells by novel synthetic polyketides inspired by Aureothin” (Scientific Reports, 2020):
Like-named read-outs stand apart in the source and are kept apart here.

Assays:
[1] = system: HIV-1LAI; test: EASY-HIT assay: infectious virus production by LC5-RIC reporter cells exposed to HIV-1LAI; type: cell-based; conditions: for Infectious virus production, median (fluorescent signal normalized to untreated virus-exposed cultures): 50 nM, LC5-RIC, secondary plates 72 h after transfer
Procedure: To identify natural compounds with anti-HIV activity we screened a collection of 10,000 natural compounds: Anti-HIV activity was evaluated by determining compound effects on infectious virus production by LC5-RIC cells which are highly susceptible for HIV and contain a DsRed1-encoding reporter gene activated by HIV-infection[6]–[8]. For screening, cultures of LC5-RIC reporter cells were first exposed to virus in the presence of the compound (first-step of the assay). Subsequently, supernatants of these cultures were transferred to secondary plates with uninfected LC5-RIC cells. The fluorescent signal of the cultures in the secondary plates served as a measure of compound effects on infectious virus production.
Anti-HIV activities of compounds were profiled in LC5-RIC cells with the EASY-HIT assay as described in[6]. Briefly, LC5-RIC cells were first exposed to virus and compounds (first step of the assay). Compound effects on infectious virus production were determined by transferring aliquots of supernatants of compound-treated cultures to secondary plates and measurement of fluorescent signal intensities in secondary plates after 72 h (second step of the assay). Fluorescent signal intensities determined for compound-treated cultures were normalized to those determined for untreated virus-exposed cultures.

[2] = system: HIV-1LAI; test: Inhibition of HIV infection of human PBMCs (infectious virus production, read out on LC5-RIC cells); type: cell-based; conditions: mean ± SD
Procedure: To evaluate anti-HIV efficacies of test compounds in primary human target cells, stimulated PBMCs were seeded in 96-well plates at a density of 500,000 cells per well, different #7concentrations of the compound (serial dilutions) and virus inoculum (MOI of 0.5) added to the PBMCs and cultures incubated for 48 h. Infectious virus production was quantified by transferring 35 µl of supernatant from the PBMC cultures to LC5-RIC cells, seeded in black 96-well plates one day earlier. LC5-RIC cultures were then incubated for 72 h and analysed for DsRed1 reporter expression and anti-HIV activity calculated as described for the EASY-HIT assay.

[3] = CellTiter-Glo 2.0 cell viability assay in PBMC; type: cell-based, human; conditions: human
Procedure: The following assays were used to profile cell safety of compound treatment in HIV-exposed cultures (LC5-RIC or PBMC): (1) CellTox^TM Green Cytotoxicity Assay, Promega, measures binding of a fluorescent dye to DNA of cells with impaired membrane integrity; (2) CellTiter-Glo® 2.0 Assay, Promega, which measures the amount of ATP in viable cells after lysis using an assay with luminescence read-out. Cells were plated into black 96-well plates followed by overnight incubation at 37 °C, 5% CO2. Compounds dissolved in DMSO were screened at multiple concentrations from 0.6 to 10,000 nM at a final DMSO concentration of 0.04% followed by additional 48 h incubation. Both assays were performed according to manufacturer’s recommendations and consecutively in the above mentioned order. Cells were washed once with PBS between the assays.

[4] = system: integrated proviral HIV-1 DNA; test: Integrated proviral HIV-1 DNA by Alu-PCR in LC5-RIC cells; type: cell-based; conditions: HIV-1LAI, 48 h, concentrations >2x IC90, normalized to DMSO
Procedure: Quantitative analysis of integrated copies of HIV proviral DNA by Alu-PCR was performed essentially as described in[46]. Briefly, LC5-RIC cells seeded at a density of 100,000 cells per well in 12-well plates and incubated for 24 h were exposed to test compounds and HIV-1LAI virus inoculum at an MOI of 0.5 and incubated for further 48 h at 37 °C, 5% CO2. Subsequently, cells were harvested and genomic DNA (gDNA) was extracted using the QIAamp DNA Mini Kit (QIAGEN) according to the manufacturer’s protocol. The relative amount of integrated proviral HIV-1 DNA was determined by two-step Alu-PCR[46]. The relative amounts of integrated proviral HIV-1 DNA in treated versus untreated samples were calculated by the 2^(−ΔΔCt) method, with ΔCT values representing CT (HIV) - CT (β-globin) for each sample and ΔΔCT values representing values of treated samples normalized to untreated samples.

[5] = system: HIV-1 transcripts (unspliced, singly spliced, multiply spliced, all); test: Relative levels of HIV-1 transcript classes by qRT-PCR in LC5-RIC cells; type: cell-based; conditions: HIV-1LAI, 48 h, vs untreated
Procedure: LC5-RIC cells were plated, treated with compounds and inoculated with virus as described for Alu-PCR above. Cells were then harvested and RNA was extracted using the RNeasy Mini Kit (QIAGEN), according to the manufacturer’s protocol. For cDNA synthesis, 1 µg of total RNA was reverse transcribed by SuperScript II reverse transcriptase (Invitrogen) according to manufacturer’s recommendations. qRT-PCR was performed with the Roche Light Cycler® 480II 96 (Version 1.5.0.39), using LightCycler® 480 SYBR Green I Mastermix (Roche). Quantitative PCR for HIV-1 transcripts was performed with primers specific for unspliced, singly spliced or multiply spliced HIV-1 transcripts as well as for ‘all HIV transcripts’; RNA Polymerase II transcripts were analysed as internal reference gene. Primer sequences are given in Supplementary Methods and binding sites shown in Supplementary Fig. S3. Data was analysed with the second derivative maximum method. The relative amount of HIV-1 transcripts in treated versus untreated samples was calculated by the 2^(−ΔΔCt) method, using RNA polymerase II as reference gene.
The following primers were used to perform the qRT-PCR analysis (primer sequences 5’ ? 3’): multiply spliced, forward: ATGGAGCCAGTAGATCCTAG, reverse: AGT CTC TCA AGC GGT GGT ^1; singly spliced, forward: GGc GGC GAC TGG AAG AGG C, reverse: CTATGATTACTATGGACCACA ^1; unspliced, forward: CTG AAG CGC GCA CGG CAA, reverse: GACGCTCTCGCACCCATCTC ^1; ‘all HIV transcripts’, forward: GTGTGTGGTAGATCCACAGATCAAGG, reverse: CCAGTCACACCTCAGGTACCTTTAAGACC ^2; RNA polymerase II, forward: GCA CCA CGT CCA ATG ACA T, reverse: GTG CGG CTG CTT CCA TAA ^3. See primer binding sites in different HIV transcripts in Fig. S1.

SMILES	Infectious virus production, median (fluorescent signal normalized to untreated virus-exposed cultures) [1]	IC90 ([1]; Human immunodeficiency virus 1, read-out: IC90, 90% inhibitory concentration) [nM]	IC50 ([1]; LC5-RIC cells exposed to HIV-1LAI, infectious virus production, mean ± SD, listed as #7, read-out: IC50, half maximal inhibitory concentration) [nM]	IC50 ([1]; LC5-RIC cells exposed to HIV-1LAI, infectious virus production, mean ± SD, read-out: IC50, half maximal inhibitory concentration) [nM]	IC90 ([2]; Human immunodeficiency virus 1, PBMC, read-out: IC90, 90% HIV-inhibitory concentration, human PBMCs exposed to HIV-1LAI) [nM]	IC50 ([2]; Human immunodeficiency virus 1, PBMC, human PBMCs exposed to HIV-1LAI, read-out: IC50, half maximal HIV-inhibitory concentration) [nM]	IC90 ([2]; read-out: IC90, 90% HIV-inhibitory concentration, human PBMCs exposed to HIV-1LAI) [nM]	CC50 at 48 h ([3]; CellTiter-Glo 2.0, PBMC, read-out: Cell viability in PBMC, CC50) [nM]	reduction of levels of integrated proviral DNA [4]	levels of singly spliced HIV transcripts [5]	levels of unspliced HIV transcripts [5]	overall abundance of HIV mRNAs (all transcripts primers) [5]	relative levels of multiply spliced HIV transcripts [5]	IC50 ([1]; Human immunodeficiency virus 1, read-out: Anti-HIV in LC5-RIC, IC50) [nM]	IC50 ([2]; Human immunodeficiency virus 1, Table S2, PBMC, read-out: Anti-HIV in PBMC, IC50) [nM]	CC50 at 48 h [3] [nM]
COc1oc(C2C/C(=C/C(C)=C/c3ccc(C(F)(F)F)cc3)CO2)c(C)c(=O)c1C (stereo not shown) [compound #7]	0.96	13.4 ± 1.75	< 10	4.9 ± 0.16	< 45	10.3 ± 0.65	41 ± 1.23	> 10000	< 20%	strongly diminished	strongly diminished	reduced the overall abundance of HIV mRNAs	did not reduce relative levels of multiply spliced transcripts			
CN1CC[C@H](c2c(O)cc(O)c3c(=O)cc(-c4ccccc4Cl)oc23)[C@H](O)C1 [Flavopiridol]	10.38								did not reveal reduction of proviral DNA levels				much stronger inhibitory effect on levels of multiply spliced transcripts than compound #7	10.9 ± 0.5	35.6 ± 3.46	120 ± 13.5
